The text below walks through data of patent US8415346B2, “Inhibitors of Janus kinases” (Merck Sharp & Dohme Corp., priority 2008, dated 2013).

T1 sequence (O60674 849-1124 limits assumed): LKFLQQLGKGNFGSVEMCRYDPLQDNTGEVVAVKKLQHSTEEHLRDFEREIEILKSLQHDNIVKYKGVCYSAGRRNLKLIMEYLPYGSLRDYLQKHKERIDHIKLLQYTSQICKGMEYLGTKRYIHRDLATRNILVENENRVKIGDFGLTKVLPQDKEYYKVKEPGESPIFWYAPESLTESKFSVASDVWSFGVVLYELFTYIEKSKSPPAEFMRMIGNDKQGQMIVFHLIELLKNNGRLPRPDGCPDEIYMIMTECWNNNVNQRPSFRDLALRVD

The experiment concerns the target T1, recombinant JAK2 (JAK2 JH1 domain) (Homo sapiens, UniProt O60674).
T1 construct: 50 nM JAK2 JH1 domain (Upstate); purchased Upstate
The experiment is described as follows: JAK2 Kinase Activity Inhibition Assay and Determination of IC50 (HTRF). Type of experiment: biochemical. The note with it: HTRF kinase assay, 15 μM MgATP, 50 nM JAK2 JH1 domain. The protocol: JAK2 Kinase Activity Inhibition Assay and Determination of IC50
The kinase activity was measured using a modified version of the homogeneous time-resolved tyrosine kinase assay described in Park et al. Anal. Biochem. 269, 94-104 (1999).
IC50 was obtained by fitting the observed relationship between compound/inhibitor concentration and HTRF signal with a 4-parameter logistic equation.
Compounds of the instant invention are potent inhibitors of recombinant purified JAK2 kinase activity with an IC50 of approximately 8 nM-1 μM.
For `NC(=O)c1cn(-c2ccccc2)nc1Nc1ccc(CN2CCOCC2)cc1` [Example 11, 3-{[4-(morpholin-4-ylmethyl)phenyl]amino}-1-phenyl-1H-pyrazole-4-carboxamide], the IC50 amounted to 49 nM. Turning to `CN1CCN(C(=O)c2ccc(Nc3nn(-c4ccccc4)cc3C(N)=O)cc2)CC1` [Example 9, 3-({4-[(4-methylpiperazin-1-yl)carbonyl]phenyl}amino)-1-phenyl-1H-pyrazole-4-carboxamide], the IC50 was 38 nM. In the case of `NC(=O)c1cn(-c2ccccc2)nc1Nc1ccc(C(=O)N2CCS(=O)(=O)CC2)cc1` [Example 10, 3-({4-[(1,1-dioxidothiomorpholin-4-yl)carbonyl]phenyl}amino)-1-phenyl-1H-pyrazole-4-carboxamide], the IC50 is 13 nM.

For the molecule `CC(C)(C)c1ccc(-n2cc(C(N)=O)c(Nc3ccc(S(C)(=O)=O)cc3)n2)cc1` [Example 17, 1-(4-tert-butylphenyl)-3-{[4-(methylsulfonyl)phenyl]amino}-1H-pyrazole-4-carboxamide], the IC50 amounted to 8.1 nM.

As to `CS(=O)(=O)c1ccc(Nc2nn(-c3ccc(Cl)cc3)cc2C(N)=O)cc1` [Example 15, 1-(4-chlorophenyl)-3-{[4-(methylsulfonyl)phenyl]amino}-1H-pyrazole-4-carboxamide], the 50% inhibitory concentration (IC50) was found to be 290 nM. The result for `CNC(=O)c1ccc(Nc2nn(-c3ccccc3)cc2C(N)=O)cc1` [Example 2, 3-({4-[(methylamino)carbonyl]phenyl}amino)-1-phenyl-1H-pyrazole-4-carboxamide] reads 160 nM; that for `CC(O)c1ccc(-n2cc(C(N)=O)c(Nc3ccc(S(C)(=O)=O)cc3)n2)cc1` (stereo not drawn) [Example 18, 1-[4-(1-hydroxyethyl)phenyl]-3-{[4-(methylsulfonyl)phenyl]amino}-1H-pyrazole-4-carboxamide], 20 nM; that for `NC(=O)c1cn(-c2ccccc2)nc1Nc1ccnc(CO)c1` [Example 3, 3-{[2-(hydroxymethyl)pyridin-4-yl]amino}-1-phenyl-1H-pyrazole-4-carboxamide], 860 nM. Turning to `CC(C)(O)c1ccc(Nc2nn(-c3ccccc3)cc2C(N)=O)cc1` [Example 14, 3-{[4-(1-hydroxy-1-methylethyl)phenyl]amino}-1-phenyl-1H-pyrazole-4-carboxamide], the IC50 came to 81 nM.

Consider `NC(=O)c1cn(-c2ccccc2)nc1Nc1ccccc1` [Example 8, 3-anilino-1-phenyl-1H-pyrazole-4-carboxamide], for which the IC50 was 480 nM. In the case of `CS(=O)(=O)c1ccc(Nc2nn(-c3ccc(S(C)(=O)=O)cc3)cc2C(N)=O)cc1` [Example 16, 1-[4-(methylsulfonyl)phenyl]-3-{[4-(methylsulfonyl)phenyl]amino}-1H-pyrazole-4-carboxamide], the IC50 was determined as 48 nM. With `CS(=O)(=O)c1ccc(Nc2nn(-c3ccccc3)cc2C(N)=O)cc1` [Example 1, 3-{[4-(methylsulfonyl)phenyl]amino}-1-phenyl-1H-pyrazole-4-carboxamide], the IC50 turned out to be 170 nM. For `NC(=O)c1cn(-c2ccccc2)nc1Nc1ccc(CN2CCS(=O)(=O)CC2)cc1` [Example 12, 3-({4-[(1,1-dioxidothiomorpholin-4-yl)methyl]phenyl}amino)-1-phenyl-1H-pyrazole-4-carboxamide], the IC50 was 36 nM. On to `CN(C)Cc1ccc(Nc2nn(-c3ccccc3)cc2C(N)=O)cc1` [Example 13, 3-({4-[(dimethylamino)methyl]phenyl}amino)-1-phenyl-1H-pyrazole-4-carboxamide], for which the IC50 worked out at 36 nM. For the molecule `NC(=O)c1cn(-c2ccccc2)nc1Nc1ccc(S(=O)(=O)N2CCOCC2)cc1` [Example 5, 3-{[4-(morpholin-4-ylsulfonyl)phenyl]amino}-1-phenyl-1H-pyrazole-4-carboxamide], the IC50 came out at 63 nM. Take `NC(=O)c1cn(-c2ccccc2)nc1Nc1ccc(C(=O)N2CCOCC2)cc1` [Example 4, 3-{[4-(morpholin-4-ylcarbonyl)phenyl]amino}-1-phenyl-1H-pyrazole-4-carboxamide]: the IC50 was determined as 94 nM. The figure for `CN(C)S(=O)(=O)c1ccc(Nc2nn(-c3ccccc3)cc2C(N)=O)cc1` [Example 6, 3-({4-[(dimethylamino)sulfonyl]phenyl}amino)-1-phenyl-1H-pyrazole-4-carboxamide] is 42 nM; for `CN(C)C(=O)c1ccc(Nc2nn(-c3ccccc3)cc2C(N)=O)cc1` [Example 7, 3-({4-[(dimethylamino)carbonyl]phenyl}amino)-1-phenyl-1H-pyrazole-4-carboxamide] it is 56 nM.

A word on the IC50: it is the concentration that gives 50% inhibition.
